Reference: patent publication US12583853B2, “1H-pyrrolo[2,3-b]pyridine derivatives and related compounds as BCL-2 inhibitors for the treatment of neoplastic and autoimmune diseases” (Newave Pharmaceutical Inc., priority 2018, dated 2026)
One block for each molecule: values may come before it.

Assays:
[1] = test system: RS4; 11 cells; conditions: cited from earlier work
[2] = target: Mcl-1 (Homo sapiens, UniProt Q07820); conditions: cited from earlier work
[3] = test system: RS4; 11 xenografts; conditions: single dose of 100 mg/kg; cited from earlier work
[4] = test system: CLL; conditions: read-out: average EC50, apoptosis in CLL; cited from earlier work
[5] = test system: xenograft (DoHH2, Granta-519); conditions: single agent or in combination with Bendamustine and other agents; cited from earlier work
[6] = test system: H345 xenograft; conditions: 100 mg/kg/day, H345 xenograft model; cited from earlier work
[7] = target: T1, Bcl-w (Homo sapiens, UniProt Q92843); conditions: cited from earlier work
T1 sequence (Q92843 1-193): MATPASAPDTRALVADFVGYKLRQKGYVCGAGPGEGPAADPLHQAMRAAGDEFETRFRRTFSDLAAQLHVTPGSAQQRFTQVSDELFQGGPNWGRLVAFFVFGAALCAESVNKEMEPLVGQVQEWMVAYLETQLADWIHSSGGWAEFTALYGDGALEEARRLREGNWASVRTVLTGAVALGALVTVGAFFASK

[8] = test system: xenograft models of small-cell lung cancer and acute lymphoblastic leukemia; conditions: oral administration, alone; cited from earlier work
[9] = test system: SCLC H146 cell line; conditions: read-out: IC50 against SCLC H146 cell line; cited from earlier work
[10] = test system: circulating platelets; conditions: clinical trial, patients; cited from earlier work
[11] = in vivo; cited from earlier work
[12] = cited from earlier work
[13] = target: T2, Bcl-2 (Homo sapiens, UniProt P10415); assay: Bcl-2 competition binding (fluorescence polarization) assay; conditions: for IC50: fluorescence polarization, 3 hours incubation at room temperature, read-out: BCL2 IC50; for BCL2 inhibitor potency in words: statement on the BCL2 IC50 table
T2 construct: purchased R&D Systems, Inc
Protocol: Biological Example 1: Bcl-2 Competition Binding (Fluorescence Polarization) Assay
This binding assay was performed in 96-well plate and with each assay contained 15 and 30 nM of labeled peptide and purified Bcl-2 protein (purchased from R&D Systems, Inc). The assay buffer contained 20 mM Hepes (pH 7.0), 50 mM KCl, 5 mM MgCl2, 20 mM Na2MoO4, 0.1 mg/ml Bovine Gamma Globulin and 0.01% NP40. Compounds were diluted in DMSO and added to the final assay with concentration range from 20 μM to 2 nM. The polarization degree (mP) value was determined by BioTek Synergy II with background subtraction after 3 hours of incubation at room temperature. IC50 was calculated using Prism software with sigmoidal dose-response curve fitting. ABT-737 was used as reference compound. Such assays, carried out with a range of doses of test compounds, allowed the determination of an approximate IC50 value.

T2 sequence (P10415 whole entry): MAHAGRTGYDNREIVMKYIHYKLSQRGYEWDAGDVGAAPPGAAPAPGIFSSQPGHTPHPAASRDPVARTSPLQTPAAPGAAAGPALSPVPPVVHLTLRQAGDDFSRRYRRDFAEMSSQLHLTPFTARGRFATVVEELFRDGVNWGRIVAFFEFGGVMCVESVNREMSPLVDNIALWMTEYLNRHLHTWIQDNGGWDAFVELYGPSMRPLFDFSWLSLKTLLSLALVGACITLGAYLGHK
Sequence of Mcl-1 (Q07820 whole entry, species assumed): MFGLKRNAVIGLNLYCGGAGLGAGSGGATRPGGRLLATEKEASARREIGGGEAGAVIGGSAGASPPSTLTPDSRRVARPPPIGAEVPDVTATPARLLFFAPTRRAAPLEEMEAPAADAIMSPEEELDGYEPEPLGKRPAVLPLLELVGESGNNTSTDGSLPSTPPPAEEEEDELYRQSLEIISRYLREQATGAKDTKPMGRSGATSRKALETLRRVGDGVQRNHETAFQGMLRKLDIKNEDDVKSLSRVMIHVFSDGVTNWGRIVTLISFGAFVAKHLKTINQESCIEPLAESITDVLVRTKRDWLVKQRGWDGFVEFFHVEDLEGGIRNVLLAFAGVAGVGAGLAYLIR

- IC50 [13]: 0.8 nM
SMILES: CC1(C)CCC(CN2CCN(c3ccc4c(c3)C(c3cnc5[nH]ccc5c3)CN(S(=O)(=O)c3ccc(NC[C@H]5COCCO5)c([N+](=O)[O-])c3)C4=O)CC2)=C(c2ccc(Cl)cc2)C1 (stereo partly drawn) [Example 2, 6-(4-[[2-(4-chlorophenyl)-4,4-dimethylcyclohex-1-en-1-yl]methyl]piperazin-1-yl)-2-(4-[[(2S)-1,4-dioxan-2-ylmethyl]amino]-3-nitrobenzenesulfonyl)-4-[1H-pyrrolo[2,3-b]pyridin-5-yl]-3,4-dihydroisoquinolin-1-one]

- IC50 [13]: 1.3 nM
- BCL2 inhibitor potency in words [13]: highly potent BCL2 inhibitor
SMILES: C=C(c1cnc2[nH]ccc2c1)c1cc(N2CCN(CC3=C(c4ccc(Cl)cc4)CC(C)(C)CC3)CC2)ccc1C(=O)NS(=O)(=O)c1ccc(NC[C@H]2COCCO2)c([N+](=O)[O-])c1 [Example 3, (S)—N-((4-(((1,4-dioxan-2-yl)methyl)amino)-3-nitrophenyl)sulfonyl)-2-(1-(1H-pyrrolo[2,3-b]pyridin-5-yl)vinyl)-4-(4-((4′-chloro-5,5-dimethyl-3,4,5,6-tetrahydro-[1,1′-biphenyl]-2-yl)methyl)piperazin-1-yl)benzamide]

The remaining lines, values behind:

SMILES: CC1(C)CCC(CN2CCN(c3ccc(C(=O)NS(=O)(=O)c4ccc(NCC5CCOCC5)c([N+](=O)[O-])c4)c(Oc4cnc5[nH]ccc5c4)c3)CC2)=C(c2ccc(Cl)cc2)C1 [ABT-199]
- EC50 [1]: 8 nM
- activity to Mcl-1 [2]: no activity
- maximal tumor growth inhibition [3]: 95%
- tumor growth delay [3]: 152%
- EC50 [4]: 3 nM
- xenograft growth [5]: inhibits xenograft growth

SMILES: CC1(C)CCC(c2ccc(Cl)cc2)=C(CN2CCN(c3ccc(C(=O)NS(=O)(=O)c4ccc(N[C@H](CCN5CCOCC5)CSc5ccccc5)c(S(=O)(=O)C(F)(F)F)c4)cc3)CC2)C1 [ABT-263]
- TGI [6]: 80%
- treated tumors indicating at least a 50% reduction in tumor volume [6]: 20%
- Ki [7]: ≤ 1 nM
- tumor response [8]: complete tumor regressions
- IC50 [9]: 110 nM
- effect on circulating platelets [10]: rapid, concentration-dependent decrease in the number of circulating platelets
- oral bioavailability [11]: orally bioavailable

SMILES: CN(C)CC[C@H](CSc1ccccc1)Nc1ccc(S(=O)(=O)NC(=O)c2ccc(N3CCN(Cc4ccccc4-c4ccc(Cl)cc4)CC3)cc2)cc1[N+](=O)[O-] [ABT-737]
- aqueous solubility [12]: low aqueous solubility
- oral bioavailability [11]: not orally bioavailable

SMILES: CC1(C)CCC(CN2CCN(c3ccc(C(=O)NS(=O)(=O)c4ccc(NCC5CCOCC5)c([N+](=O)[O-])c4)c(P(C)(=O)c4cnc5[nH]ccc5c4)c3)CC2)=C(c2ccc(Cl)cc2)C1 (centres unmarked) [Example 1, 4-(4-[[2-(4-chlorophenyl)-4,4-dimethylcyclohex-1-en-1-yl]methyl]piperazin-1-yl)-2-[methyl(1H-pyrrolo[2,3-b]pyridin-5-yl)phosphoroso]-N-[3-nitro-4-[(oxan-4-ylmethyl)amino]benzenesulfonyl]benzamide]
- IC50 [13]: 0.45 nM
- BCL2 inhibitor potency in words [13]: highly potent BCL2 inhibitor
